Test results published in ChEMBL document CHEMBL1201862, “PubChem BioAssay data set” (2004).
Activity calls are given as the source filed them.

Tests used:
Cytochrome P450 2C19 = Cytochrome P450 2C19 (Homo sapiens, UniProt P33261); test: qHTS Assay for Inhibitors and Substrates of Cytochrome P450 2C19. [Related pubchem assays: 410 ]; type: ADME; conditions: read-out: Potency
Cytochrome P450 2D6 = Cytochrome P450 2D6 (Homo sapiens, UniProt P10635); test: qHTS Assay for Inhibitors and Substrates of Cytochrome P450 2D6. [Related pubchem assays: 410 ]; type: ADME; conditions: read-out: Potency
[1] = target: Eukaryotic translation initiation factor 4H (Homo sapiens, UniProt Q15056); test: eIF4H binding inhibition – biochemical, uHTS, fluorescence polarization, translation initiation inhibitor project, primary screen (AID 2012)
[2] = target: Polyadenylate-binding protein 1 (Homo sapiens, UniProt P11940); test: blockers of PABP interaction with poly(A) – biochemical, fluorescence polarization, […] (AID 2014)
[3] = target: DNA dC->dU-editing enzyme APOBEC-3A (Homo sapiens, UniProt P31941); test: Dose Response confirmation of small molecule APOBEC3A DNA Deaminase Inhibitors via a fluorescence-based single-stranded DNA deaminase assay. [Related pubchem assays (depositor defined):AID493011, AID493024]; type: functional
[4] = target: DNA dC->dU-editing enzyme APOBEC-3G (Homo sapiens, UniProt Q9HC16); type: functional;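 note: Dose-response counterscreen measuring inhibition of APOBEC3G DNA deaminase activity, run while confirming APOBEC3A inhibitors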
[5] = target: Mothers against decapentaplegic homolog 3 (Homo sapiens, UniProt P84022); test: blockers of Smad3 complex formation in lysate – cell lysate, secondary confirmation, chemiluminescent ELISA, HEK293 lysate, dose response (AID 1058); type: functional
[6] = target: T1, Eukaryotic translation initiation factor 2-alpha kinase 3 (Homo sapiens, UniProt Q9NZJ5); test: Dose response cell-based high-throughput screening assay to measure PERK inhibition. [Related pubchem assays: 1416 ]; type: functional
[7] = target: T1, Eukaryotic translation initiation factor 2-alpha kinase 3; test: Counterscreen assay for PERK inhibitors: Dose response cell-based high throughput screening assay to measure inhibition of PERK at 6 hours. [Related pubchem assays: 1522, 1416 ]; type: functional
[8] = target: T2, Short transient receptor potential channel 4 (Mus musculus, UniProt Q9QUQ5); test: block of DAMGO-driven TRPC4 calcium entry – cell-based, HEK293 TRPC4/mu-opioid, Fluo-4 calcium, dose response (AID 434942); type: functional;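 note: potency of inhibitors blocking the TRPC4 calcium response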
T2 sequence (Q9QUQ5 whole entry): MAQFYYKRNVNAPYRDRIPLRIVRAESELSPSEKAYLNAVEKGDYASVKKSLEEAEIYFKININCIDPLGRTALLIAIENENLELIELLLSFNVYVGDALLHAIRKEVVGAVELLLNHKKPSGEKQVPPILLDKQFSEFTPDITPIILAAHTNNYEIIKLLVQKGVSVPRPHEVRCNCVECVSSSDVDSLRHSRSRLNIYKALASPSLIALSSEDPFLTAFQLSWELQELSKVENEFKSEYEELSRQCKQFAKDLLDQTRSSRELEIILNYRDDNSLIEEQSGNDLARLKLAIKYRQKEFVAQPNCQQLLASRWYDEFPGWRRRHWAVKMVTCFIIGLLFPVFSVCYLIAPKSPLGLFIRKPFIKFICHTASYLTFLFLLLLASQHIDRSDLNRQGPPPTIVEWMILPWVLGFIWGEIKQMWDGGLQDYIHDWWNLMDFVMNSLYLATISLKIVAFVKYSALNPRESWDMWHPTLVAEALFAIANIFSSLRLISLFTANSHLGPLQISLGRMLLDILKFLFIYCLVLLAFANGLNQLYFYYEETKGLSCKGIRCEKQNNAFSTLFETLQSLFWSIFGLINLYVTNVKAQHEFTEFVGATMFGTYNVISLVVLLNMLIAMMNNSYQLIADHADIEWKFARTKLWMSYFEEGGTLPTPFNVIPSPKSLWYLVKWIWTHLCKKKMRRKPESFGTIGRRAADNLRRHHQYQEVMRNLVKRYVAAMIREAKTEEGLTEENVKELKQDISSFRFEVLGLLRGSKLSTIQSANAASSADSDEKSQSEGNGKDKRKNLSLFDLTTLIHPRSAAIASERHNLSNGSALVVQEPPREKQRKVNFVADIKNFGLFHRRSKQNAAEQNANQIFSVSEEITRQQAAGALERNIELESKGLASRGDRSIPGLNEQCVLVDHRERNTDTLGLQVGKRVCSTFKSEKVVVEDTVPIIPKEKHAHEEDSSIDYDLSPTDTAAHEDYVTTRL

[9] = target: Eukaryotic translation initiation factor 4E (Mus musculus, UniProt P63073); test: blockers of eIF4G binding by eIF4E – biochemical, TR-FRET, dose response (AID 855); type: functional;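 note: potency for disrupting eIF4E binding to eIF4GI seen as loss of FRET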
[10] = Counterscreen for IDE inhibitors: Luminescence-based cell-based high throughput dose response assay to identify compounds that are cytotoxic to HEK cells. [Related pubchem assays: 434962 (Primary screen (IDE inhibitors in singlicate)), 449730 (Counterscreen (Cytotoxicity in triplicate)), 435028 (Confirmation (IDE inhibitors in triplicate)) …; type: functional; conditions: HEK293
Insulin-degrading enzyme = target: T3, Insulin-degrading enzyme (Homo sapiens, UniProt P14735); test: Dose Response: Fluorescence polarization-based cell-based high throughput dose response assay for inhibitors of insulin-degrading enzyme (IDE). [Related pubchem assays: 434962 (Primary screen (IDE inhibitors in singlicate)), 449730 (Counterscreen (Cytotoxicity in triplicate)), 435028 (Confirmation (IDE inhibitors in triplicate)), 434984 (Summary …; type: functional
T3 sequence (P14735 whole entry): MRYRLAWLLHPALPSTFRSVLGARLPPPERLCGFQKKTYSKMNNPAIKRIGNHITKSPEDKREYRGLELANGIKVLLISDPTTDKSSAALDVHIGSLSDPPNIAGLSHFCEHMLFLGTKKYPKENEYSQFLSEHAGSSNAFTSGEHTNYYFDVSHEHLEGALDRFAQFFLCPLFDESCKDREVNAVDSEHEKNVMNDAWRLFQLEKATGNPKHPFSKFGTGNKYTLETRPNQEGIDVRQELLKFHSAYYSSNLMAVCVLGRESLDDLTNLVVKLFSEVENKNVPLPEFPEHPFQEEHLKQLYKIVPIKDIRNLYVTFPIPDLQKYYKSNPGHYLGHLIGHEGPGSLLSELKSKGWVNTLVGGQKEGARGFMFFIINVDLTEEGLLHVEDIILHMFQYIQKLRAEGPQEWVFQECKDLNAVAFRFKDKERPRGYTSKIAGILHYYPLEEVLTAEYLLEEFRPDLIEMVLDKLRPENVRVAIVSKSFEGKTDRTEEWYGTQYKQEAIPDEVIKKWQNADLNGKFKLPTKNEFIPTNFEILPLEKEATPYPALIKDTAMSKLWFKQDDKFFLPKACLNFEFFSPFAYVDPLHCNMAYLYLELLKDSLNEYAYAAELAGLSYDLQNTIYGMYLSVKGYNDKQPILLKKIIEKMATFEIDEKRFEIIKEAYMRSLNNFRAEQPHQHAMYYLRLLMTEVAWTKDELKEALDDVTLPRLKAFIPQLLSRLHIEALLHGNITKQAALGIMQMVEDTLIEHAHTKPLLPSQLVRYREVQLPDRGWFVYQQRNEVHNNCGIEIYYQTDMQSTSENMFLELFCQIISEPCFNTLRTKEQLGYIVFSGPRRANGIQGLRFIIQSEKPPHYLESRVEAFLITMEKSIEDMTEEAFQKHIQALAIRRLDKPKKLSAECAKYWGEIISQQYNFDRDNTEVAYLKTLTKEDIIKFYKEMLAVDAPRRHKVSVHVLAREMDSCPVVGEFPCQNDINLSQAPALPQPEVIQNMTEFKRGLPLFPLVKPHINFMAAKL

[11] = target: T4, Sentrin-specific protease 1 (Homo sapiens, UniProt Q9P0U3); test: SENP1 catalytic domain blockers, concentration series – biochemical, kinetic FRET, dose response (AID 651697); type: functional; conditions: read-out: IC50_Mean
T4 sequence (Q9P0U3 whole entry): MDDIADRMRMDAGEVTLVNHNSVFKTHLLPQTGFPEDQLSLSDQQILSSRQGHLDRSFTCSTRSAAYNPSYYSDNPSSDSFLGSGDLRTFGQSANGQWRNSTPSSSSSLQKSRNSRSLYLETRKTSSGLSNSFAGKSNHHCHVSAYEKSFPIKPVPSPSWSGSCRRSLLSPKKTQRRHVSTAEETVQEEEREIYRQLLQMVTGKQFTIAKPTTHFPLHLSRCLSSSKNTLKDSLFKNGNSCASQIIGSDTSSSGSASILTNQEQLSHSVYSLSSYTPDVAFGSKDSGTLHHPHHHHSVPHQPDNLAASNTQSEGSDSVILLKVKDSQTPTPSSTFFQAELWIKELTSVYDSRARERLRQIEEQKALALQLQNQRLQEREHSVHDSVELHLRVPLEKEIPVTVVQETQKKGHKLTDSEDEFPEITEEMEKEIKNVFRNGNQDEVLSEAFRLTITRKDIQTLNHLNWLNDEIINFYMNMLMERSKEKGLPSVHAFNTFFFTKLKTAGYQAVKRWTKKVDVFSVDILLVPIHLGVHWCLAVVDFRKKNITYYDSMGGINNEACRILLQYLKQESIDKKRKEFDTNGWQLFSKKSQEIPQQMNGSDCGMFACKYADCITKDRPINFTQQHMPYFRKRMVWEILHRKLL

[12] = target: T4, Sentrin-specific protease 1; test: Dose response confirmation of small molecule inhibitors of the catalytic domain of the SUMO protease, SENP1 in a FRET assay.; type: functional; conditions: read-out: IC50_Mean
Genome polyprotein = Genome polyprotein (Hepatitis C virus, UniProt Q2Q167); test: disruption of hepatitis C core self-association – biochemical, TR-FRET, dose response (AID 2159); set-up: species or system Hepacivirus hominis;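 note: blocks dimerization of HCV core protein measured by TR-FRET between tagged core106 pairs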
[13] = target: T5, Heat shock 70 kDa protein 1A (Homo sapiens, UniProt P0DMV8); test: small-molecule inhibition of Hsp70 – biochemical, TR-FRET (AID 786)
[14] = target: T5, Heat shock 70 kDa protein 1A; test: small molecules displacing fluorescent ligand from Hsp70 – biochemical, fluorescence polarization, primary screen (AID 583)
[15] = target: Induced myeloid leukemia cell differentiation protein Mcl-1 (Homo sapiens, UniProt Q07820); test: blockers of MCL1 binding to BIM peptide – biochemical, fluorescence polarization, BIM-BH3 peptide, 1536-well, dose response (AID 2217)
Bcl-2-like protein 1 = Bcl-2-like protein 1 (Homo sapiens, UniProt Q07817); test: blockers of BCLXL peptide binding – biochemical, fluorescence polarization, 1536-well, selectivity assay for MCL1 inhibitor project, dose response (AID 2218)
[16] = target: Luciferin 4-monooxygenase (Photinus pyralis, UniProt P08659); test: inhibition of purified Photinus pyralis luciferase – biochemical, luminescence, dose response (AID 1891)
[17] = Luminescence Cell-Based Dose Confirmation HTS to Identify Inhibitors of Platelet Dense Granule Release. [Related pubchem assays: 1663 (Primary HTS), 1678 (Summary of Project)]; type: functional
[18] = ADP-Glo luciferase signal interference – biochemical, luminescence, cherry-picked samples, set 2, artefact control for CDK5 inhibitor project, dose response (AID 504546); type: functional, cell-based
[19] = target: Cyclin-dependent kinase 5/CDK5 activator 1 (Homo sapiens, UniProt Q00535); test: blockade of human CDK5 activity – biochemical, cherry-picked samples, set 2, dose response (AID 504545)
[20] = target: Serine/threonine-protein phosphatase PP1-alpha catalytic subunit (Homo sapiens, UniProt P62136); test: inhibition of protein phosphatase 1 activity – biochemical, fluorescence, dose response (AID 2403);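 note: phosphatase turnover of OMFP into fluorescent 3-O-methylfluorescein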
[21] = target: Serine/threonine-protein phosphatase (Homo sapiens, UniProt Q9BPW0); test: Counterscreen for inhibitors of PP1: fluorescence-based biochemical high throughput dose response assay to identify inhibitors of Protein Phosphatase 5 (PP5). [Related pubchem assays: 2034 (Summary (PP5 inhibitors)), 1987 (PP5 inhibitors in singlate), 2235 (PP1 inhibitors in singlate)]
[22] = target: Acyl-homoserine lactone acylase PvdQ (Pseudomonas aeruginosa (strain LESB58), UniProt Q9I194); test: PvdQ acylase enzyme activity blockers – biochemical, fluorescence, plate reader and imaging, cherry-picks, dose response (AID 493231)

T5 sequence (P0DMV8 whole entry): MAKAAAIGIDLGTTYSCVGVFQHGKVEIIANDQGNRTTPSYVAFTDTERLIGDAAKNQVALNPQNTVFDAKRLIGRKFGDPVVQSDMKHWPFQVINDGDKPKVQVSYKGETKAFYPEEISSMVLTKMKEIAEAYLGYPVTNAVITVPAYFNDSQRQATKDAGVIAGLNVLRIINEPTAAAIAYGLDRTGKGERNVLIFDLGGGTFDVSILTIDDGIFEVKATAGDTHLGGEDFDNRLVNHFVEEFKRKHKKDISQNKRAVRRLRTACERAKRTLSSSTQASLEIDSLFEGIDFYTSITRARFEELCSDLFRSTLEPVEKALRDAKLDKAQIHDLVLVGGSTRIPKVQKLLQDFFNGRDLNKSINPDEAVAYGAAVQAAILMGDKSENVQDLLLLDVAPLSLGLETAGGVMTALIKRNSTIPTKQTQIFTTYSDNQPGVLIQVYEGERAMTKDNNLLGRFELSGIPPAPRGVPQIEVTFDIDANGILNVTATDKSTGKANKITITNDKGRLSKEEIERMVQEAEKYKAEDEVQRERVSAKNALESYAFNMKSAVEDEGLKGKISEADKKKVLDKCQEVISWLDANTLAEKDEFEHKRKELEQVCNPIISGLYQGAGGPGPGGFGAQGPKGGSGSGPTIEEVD
T1 sequence (Q9NZJ5 whole entry): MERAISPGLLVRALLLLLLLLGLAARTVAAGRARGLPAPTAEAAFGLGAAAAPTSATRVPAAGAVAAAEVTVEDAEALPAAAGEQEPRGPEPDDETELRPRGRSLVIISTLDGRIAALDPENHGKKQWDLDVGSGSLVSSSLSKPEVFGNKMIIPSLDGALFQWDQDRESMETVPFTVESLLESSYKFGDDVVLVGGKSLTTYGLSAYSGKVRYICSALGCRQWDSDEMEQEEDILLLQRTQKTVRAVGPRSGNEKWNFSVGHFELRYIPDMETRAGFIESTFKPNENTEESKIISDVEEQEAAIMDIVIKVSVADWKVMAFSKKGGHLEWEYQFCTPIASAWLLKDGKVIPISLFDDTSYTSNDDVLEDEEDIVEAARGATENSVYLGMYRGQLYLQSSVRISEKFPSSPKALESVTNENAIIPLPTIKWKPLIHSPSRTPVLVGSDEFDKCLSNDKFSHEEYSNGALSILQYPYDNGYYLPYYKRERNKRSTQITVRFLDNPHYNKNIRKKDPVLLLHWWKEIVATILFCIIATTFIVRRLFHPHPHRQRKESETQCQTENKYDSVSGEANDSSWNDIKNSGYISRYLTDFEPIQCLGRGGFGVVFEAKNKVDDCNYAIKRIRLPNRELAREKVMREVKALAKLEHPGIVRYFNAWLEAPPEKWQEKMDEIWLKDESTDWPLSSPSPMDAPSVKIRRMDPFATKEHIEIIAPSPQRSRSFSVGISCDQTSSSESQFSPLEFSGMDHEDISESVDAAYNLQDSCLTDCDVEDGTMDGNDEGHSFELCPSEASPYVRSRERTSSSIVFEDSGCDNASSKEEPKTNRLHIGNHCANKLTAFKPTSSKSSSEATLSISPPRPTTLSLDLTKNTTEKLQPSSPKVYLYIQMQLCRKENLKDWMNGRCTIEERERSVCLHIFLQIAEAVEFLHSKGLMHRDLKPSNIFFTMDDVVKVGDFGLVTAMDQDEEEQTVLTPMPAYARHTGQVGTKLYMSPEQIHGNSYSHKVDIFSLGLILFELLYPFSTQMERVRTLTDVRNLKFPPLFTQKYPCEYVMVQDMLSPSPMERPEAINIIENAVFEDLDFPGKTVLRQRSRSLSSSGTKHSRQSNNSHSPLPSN
Sequence of Induced myeloid leukemia cell differentiation protein Mcl-1 (Q07820 whole entry): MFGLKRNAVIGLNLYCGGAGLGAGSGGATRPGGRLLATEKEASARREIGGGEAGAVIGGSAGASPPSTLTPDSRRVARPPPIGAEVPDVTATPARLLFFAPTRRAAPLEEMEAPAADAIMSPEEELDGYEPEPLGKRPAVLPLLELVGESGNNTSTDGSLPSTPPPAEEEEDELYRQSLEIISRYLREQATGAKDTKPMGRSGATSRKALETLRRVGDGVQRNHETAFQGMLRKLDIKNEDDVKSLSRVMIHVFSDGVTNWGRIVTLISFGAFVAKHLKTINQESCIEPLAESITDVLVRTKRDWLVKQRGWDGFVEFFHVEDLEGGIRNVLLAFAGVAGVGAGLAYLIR
Sequence of Cyclin-dependent kinase 5/CDK5 activator 1 (Q00535 whole entry): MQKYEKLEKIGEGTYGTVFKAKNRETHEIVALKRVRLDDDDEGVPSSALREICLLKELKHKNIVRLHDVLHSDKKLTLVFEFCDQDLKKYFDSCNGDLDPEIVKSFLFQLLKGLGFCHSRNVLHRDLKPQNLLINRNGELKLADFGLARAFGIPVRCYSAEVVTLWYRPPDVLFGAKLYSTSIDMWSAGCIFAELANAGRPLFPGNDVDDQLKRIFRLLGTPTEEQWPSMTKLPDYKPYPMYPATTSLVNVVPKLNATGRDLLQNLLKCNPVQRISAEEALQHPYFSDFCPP
Sequence of Cyclin-dependent kinase 5/CDK5 activator 1 (Q15078 whole entry, further chain): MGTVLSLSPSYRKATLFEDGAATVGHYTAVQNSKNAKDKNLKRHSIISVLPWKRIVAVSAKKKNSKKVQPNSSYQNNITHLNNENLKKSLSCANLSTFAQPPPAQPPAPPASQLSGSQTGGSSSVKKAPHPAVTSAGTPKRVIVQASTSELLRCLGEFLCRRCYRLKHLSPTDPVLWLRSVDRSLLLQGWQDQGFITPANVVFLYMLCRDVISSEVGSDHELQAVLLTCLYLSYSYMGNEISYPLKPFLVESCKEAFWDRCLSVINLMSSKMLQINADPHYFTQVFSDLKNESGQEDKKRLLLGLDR
Sequence of Luciferin 4-monooxygenase (P08659 whole entry): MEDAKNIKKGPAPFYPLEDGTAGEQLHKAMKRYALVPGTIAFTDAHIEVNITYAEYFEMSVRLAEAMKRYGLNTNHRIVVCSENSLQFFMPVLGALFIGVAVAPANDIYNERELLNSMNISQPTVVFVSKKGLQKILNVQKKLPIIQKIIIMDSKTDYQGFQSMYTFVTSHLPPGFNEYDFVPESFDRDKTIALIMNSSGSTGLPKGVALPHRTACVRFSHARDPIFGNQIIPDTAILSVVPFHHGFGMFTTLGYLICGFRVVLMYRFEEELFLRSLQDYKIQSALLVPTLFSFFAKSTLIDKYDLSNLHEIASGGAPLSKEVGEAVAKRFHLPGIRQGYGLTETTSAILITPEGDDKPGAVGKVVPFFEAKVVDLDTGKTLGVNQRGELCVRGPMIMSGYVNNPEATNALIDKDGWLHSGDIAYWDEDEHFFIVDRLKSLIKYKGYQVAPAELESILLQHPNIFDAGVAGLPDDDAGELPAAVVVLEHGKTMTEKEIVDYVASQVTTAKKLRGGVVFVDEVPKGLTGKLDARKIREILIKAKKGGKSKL
Sequence of Serine/threonine-protein phosphatase (Q9BPW0 whole entry): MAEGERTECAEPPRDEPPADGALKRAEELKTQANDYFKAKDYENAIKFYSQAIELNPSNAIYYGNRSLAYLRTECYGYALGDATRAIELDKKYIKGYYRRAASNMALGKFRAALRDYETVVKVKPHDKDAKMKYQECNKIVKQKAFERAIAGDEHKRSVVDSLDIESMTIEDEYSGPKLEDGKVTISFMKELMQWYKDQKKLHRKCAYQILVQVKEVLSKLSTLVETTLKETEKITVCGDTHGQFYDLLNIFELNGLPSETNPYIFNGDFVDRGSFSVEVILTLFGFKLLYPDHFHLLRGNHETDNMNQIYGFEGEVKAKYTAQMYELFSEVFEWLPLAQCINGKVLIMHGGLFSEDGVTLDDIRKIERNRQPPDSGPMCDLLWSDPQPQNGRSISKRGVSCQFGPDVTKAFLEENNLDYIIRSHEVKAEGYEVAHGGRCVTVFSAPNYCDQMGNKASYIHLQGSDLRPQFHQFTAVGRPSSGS
Sequence of Cytochrome P450 2D6 (P10635 whole entry): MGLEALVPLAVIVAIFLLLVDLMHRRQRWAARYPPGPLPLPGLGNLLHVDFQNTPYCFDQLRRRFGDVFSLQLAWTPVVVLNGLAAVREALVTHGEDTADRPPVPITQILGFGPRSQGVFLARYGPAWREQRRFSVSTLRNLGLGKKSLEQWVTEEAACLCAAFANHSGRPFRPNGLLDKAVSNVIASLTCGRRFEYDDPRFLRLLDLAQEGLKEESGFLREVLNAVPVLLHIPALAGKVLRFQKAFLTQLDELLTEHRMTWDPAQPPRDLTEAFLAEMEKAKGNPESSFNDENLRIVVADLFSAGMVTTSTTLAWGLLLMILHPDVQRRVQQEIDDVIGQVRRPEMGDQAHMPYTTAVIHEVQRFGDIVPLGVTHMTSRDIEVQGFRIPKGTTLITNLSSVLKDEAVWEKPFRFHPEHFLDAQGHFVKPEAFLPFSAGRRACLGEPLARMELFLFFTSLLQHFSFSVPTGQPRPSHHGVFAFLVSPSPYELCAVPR
Sequence of Polyadenylate-binding protein 1 (P11940 whole entry): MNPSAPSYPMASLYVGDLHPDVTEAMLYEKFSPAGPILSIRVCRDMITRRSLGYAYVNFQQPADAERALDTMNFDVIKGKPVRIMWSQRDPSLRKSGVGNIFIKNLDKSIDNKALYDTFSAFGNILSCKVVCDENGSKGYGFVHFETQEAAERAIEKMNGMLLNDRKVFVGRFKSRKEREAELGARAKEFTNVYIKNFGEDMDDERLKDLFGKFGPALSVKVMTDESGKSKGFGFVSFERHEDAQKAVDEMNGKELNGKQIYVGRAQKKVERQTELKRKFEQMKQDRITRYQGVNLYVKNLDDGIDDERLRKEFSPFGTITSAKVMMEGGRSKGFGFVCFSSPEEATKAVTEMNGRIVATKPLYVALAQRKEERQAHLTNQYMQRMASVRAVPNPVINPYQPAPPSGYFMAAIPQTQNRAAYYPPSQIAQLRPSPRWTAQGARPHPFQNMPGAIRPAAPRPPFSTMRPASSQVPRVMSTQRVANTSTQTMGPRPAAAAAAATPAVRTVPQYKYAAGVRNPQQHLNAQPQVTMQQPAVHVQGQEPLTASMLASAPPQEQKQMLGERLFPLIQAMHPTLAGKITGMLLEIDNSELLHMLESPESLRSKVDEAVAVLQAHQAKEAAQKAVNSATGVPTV
Sequence of Genome polyprotein (Q2Q167 whole entry): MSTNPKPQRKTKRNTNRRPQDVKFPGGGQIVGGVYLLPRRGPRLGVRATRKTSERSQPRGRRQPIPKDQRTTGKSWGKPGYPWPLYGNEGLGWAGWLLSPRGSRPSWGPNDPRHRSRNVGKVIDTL

In the case of `COc1cc2oc(-c3ccccc3)cc(=O)c2cc1O`, the AC50 (Cytochrome P450 2C19) is reported as 5.01 µM (inconclusive) and the AC50 (Cytochrome P450 2D6) is reported as 31.6 µM (inconclusive).

In the case of `C=CCNC1=N[C@@H](c2ccccc2)C(C(=O)OC)=C(C)N1CC`, the IC50 [1] is reported as > 100 µM (inactive), the IC50 [2] is reported as 9.54 µM (active) and the IC50 [3] is reported as 5.62 µM (active). The IC50 [4] was 4.51 µM (active).

For `COc1ccc(C(c2cc3c(cc2O)OCO3)N2CCOCC2)cc1OC` (configuration not stated), the IC50 [5] was 12.2 µM (not active).

With `Cc1cc(/C=C2/C(=N)N3C(=NC2=O)SN=C3S(C)(=O)=O)c(C)n1-c1ccccc1F` the EC50 [6] was > 55.7 µM (not active), the EC50 [7] was > 55.7 µM (not active) and the EC50 [8] was 1.19 µM (active). For the same compound, the IC50 [9] was 50 µM (inactive).

With `Cc1c(-n2cc(C(=O)c3cc(Cl)ccc3O)cc(C#N)c2=O)c(=O)n(-c2ccccc2)n1C` the IC50 [10] was > 55.7 µM (not active), the IC50 (Insulin-degrading enzyme) was > 55.9 µM (not active) and the IC50 [11] was 13 µM (active). The IC50 [12] was 7.48 µM (active).

With `COc1ccc(Br)cc1/C=c1\sc2nc(-c3ccco3)nn2c1=O` the IC50 (Genome polyprotein) was > 49.8 µM (not active), the IC50 [13] was > 100 µM (not active) and the IC50 [14] was > 100 µM (not active). For the same compound, the IC50 [15] was 10.8 µM (not active) and the IC50 (Bcl-2-like protein 1) was > 109 µM (not active).

In the case of `COc1ccc(C(=O)O/N=C(/C)c2cccs2)cc1`, the EC50 [16] is reported as 517 nM (active), the EC50 [17] is reported as 1.34 µM (active) and the AC50 [18] is reported as 31.8 µM (active). For the same compound, the AC50 [19] was 15.7 µM (active).

In the case of `COc1ccc2c(Cl)c(C(=O)N/N=C/c3ccncc3)sc2c1`, the IC50 [20] is reported as 6.48 µM (active) and the IC50 [21] is reported as > 67 µM (not active).

For `COc1ccc(/C(C#N)=C/c2ccccn2)cc1`, the AC50 [22] was 19.9 µM (active).
